Test systems include ACHN renal; HCT-116 colon; HCT-15 colon; M14 melanoma; MCF7 breast; MDA-MB-435; NCI-H460 lung; OVCAR-3 ovarian; SF-295 CNS; SNB-19 CNS.
Assay in all cases: inhibition of tumour cell growth, NCI panel, 48 h

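Each compound was tested at five concentrations against cells in 96-well plates for 48 hours. The concentration for 50% growth inhibition is given as GI50. Definition used: TGI = concentration required for complete inhibition of growth.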

Regarding `O=C1c2ccccc2-c2c1c1ccccc1c(=O)n2CCNCCNCCNCCn1c2c(c3ccccc3c1=O)C(=O)c1ccccc1-2`, the GI50 was 0.0536 µM in the assay on ACHN renal; 0.111 µM with HCT-116 colon; 0.579 µM in the assay with HCT-15 colon; 1.61 µM in the assay with M14 melanoma; 0.0329 µM in the assay on MCF7 breast; 0.993 µM in the assay with MDA-MB-435. Besides, the GI50 with NCI-H460 lung was 0.0707 µM; with OVCAR-3 ovarian it was 1.16 µM; in the assay on SF-295 CNS, 1.4 µM; in the assay with SNB-19 CNS, 2.35 µM. Further, the TGI was 0.555 µM with ACHN renal; over 100 µM with HCT-116 colon; 2.11 µM with HCT-15 colon; 3.5 µM in the assay on M14 melanoma; 0.298 µM in the assay on MCF7 breast; 4.7 µM in the assay on MDA-MB-435. The TGI with NCI-H460 lung was over 100 µM; in the assay on OVCAR-3 ovarian, 4.91 µM; with SF-295 CNS, 7.58 µM; in the assay on SNB-19 CNS, over 100 µM.
